According to US20210186972A1, “FORMULATIONS AND METHODS FOR THE PREVENTION AND TREATMENT OF TUMOR METASTASIS AND TUMORIGENESIS” (THE UNITED STATES OF AMERICA, AS REPRESENTED BY THE …, priority 2018, published 2021):

Legend:
[1] = test system: PC3M xenograft mice; experiment: PC3M xenograft prostate cancer model; assay type: in vivo
Description: Metarrestin was tested in PC3M xenograft mice to determine whether metarrestin's anti-metastasis activity (observed in the NSG PANC1 mice and in vitro pan-cancer PNC suppression) translates into anti-metastasis activity in additional cancer models. Two weeks after subcutaneous implantation of PC3M cells, mice were started on 5 mg/kg or 25 mg/kg metarrestin or vehicle by daily IP injection for 4 additional weeks. Tumor progression was tracked by both in vivo imaging systems (“IVIS”) spectroscopy and tumor volume. Metastasis to the lungs was evaluated ex vivo through IVIS spectroscopy and by histopathology at the experimental endpoint. […] To evaluate the effect of metarrestin on a malignant xenograft considered closest to in vivo conditions, a patient-derived breast cancer xenotransplantation model (PDX) was used. Metastatic breast cancer cells harvested from the pleural fluid of a stage IV ductal breast cancer patient were inoculated into mice, and third generation mouse-passaged tumors were transplanted into the mammary fat pad of NOD.Cg-Prkdc^scid Il2rg^tm1Sug/JicTac mice. Treatment with metarrestin started after the tumors reached 150-200 mm^3. Metarrestin (25 mg/kg) or vehicle was administered daily by IP injection for 4 weeks with a 5-day on and 2-day off schedule. Tumor size and total body weight were measured twice a week, and tumor weight was measured at experimental end-point.
Prostate cancer model: Mice were implanted in the flank with 3×10^6 human PC-3M-luc-C6 […] tumor cells (Caliper Life Sciences) and split into 4 groups of 10 mice. Dosing with 5 or 25 mg/kg drug or vehicle alone (negative control) was initiated after 2 weeks and continued until the experimental endpoint, 6 weeks after implantation. Primary tumor size (measured with calipers), live tumor cell content (measured by biophotonic imaging), and total body weight were determined each week. At the endpoint, animals were euthanized, metastatic organs removed, and metastases quantitated by biophotonic imaging of the organs.

[2] = test system: normal human fibroblast GM02153 cell line; experiment: UBF distribution (nucleolar capping) in normal fibroblasts; assay type: cell-based
Description: The nucleolar disruption was reversible within 48 hours upon withdrawal of metarrestin (FIG. 47). Similar disruptions were observed among other treated cell lines, including PANC1 and PC3M cells (FIG. 48), primary tumor, and liver metastatic tissues in the PANC1 xenograft model (FIG. 21, right panels). […] The segregation of the nucleolar compartments observed by EM is believed to correspond to the nucleolar capping structures detected by immunofluorescence of nucleolar proteins (FIGS. 21A-21C, 23, and 50). The coupling of nucleolar segregation with PNC loss was confirmed across several cell lines by immunolabeling with antibodies against the nucleolar Pol I transcription initiation factors, UBF (upstream binding transcription factor) (FIGS. 23 and 50), or Pol I polymerase, RPA194 (FIG. 51). Factors involved in ribosome maturation, such as fibrillarin or NOPP140 (FIGS. 51 and 52) were similarly reorganized. In contrast, UBF distribution was not changed when the normal human fibroblast GM02153 cell line was treated with metarrestin at the same concentration (FIG. 53).

[3] = test system: KPC mice; experiment: Veterinary histopathology and clinical chemistry, KPC mice; assay type: in vivo
[4] = female, KPC, mouse, in vivo, 3 months
[5] = male, KPC, mouse, in vivo, 3 months

N=c1c2c(-c3ccccc3)c(-c3ccccc3)n(Cc3ccccc3)c2ncn1[C@H]1CC[C@H](O)CC1 [metarrestin]
Growth of primary tumor xenografts ([1]; 25 mg/kg daily IP for 4 weeks): modestly reduced growth | Lung metastasis ([1]; 25 mg/kg daily IP for 4 weeks, P<0.05 vs vehicle): decreased development of lung metastasis | Body weight and behavior ([1]; daily IP for 4 weeks): not significantly different | UBF distribution ([2]; 1 μM): not changed | UBF capping ([2]; 5 μM): did not become completely capped | Ileum segmented filamentous bacteria ([3]; KPC-Metarrestin Female F01): 3/3 | Ileum segmented filamentous bacteria ([3]; KPC-Metarrestin Male M01): 4/4 | Adrenal hyperplasia, subcapsular cell [3, 4]: 2/3 | Duodenum dilatation [3, 4]: 3/3 | Femur marrow hyperplasia, granulocytic [3, 4]: 1/3 | Gall Bladder hyperplasia, papillary [3, 4]: 3/3 | Kidney hydronephrosis [3, 4]: 1/3 | Kidney mineralization [3, 4]: 1/3 | Liver deformity [3, 4]: 1/3 | Liver inflammation, subacute [3, 4]: 3/3 | Lung lymphocytic infiltrate [3, 4]: 3/3 | Pancreas duct, dilation [3, 4]: 3/3 | Pancreas neoplasm, graded [3, 4]: 3/3 | Salivary Gland lymphocytic infiltrate [3, 4]: 2/3 | Spleen extramedullary hematopoiesis, erythrocytic, increased erythropoiesis [3, 4]: 1/3 | Spleen fibrosis [3, 4]: 1/3 | Spleen melanin [3, 4]: 1/3 | Stomach, glandular, hyperplasia, foveolar cells [3, 4]: 3/3 | Thyroid ectopic thymus [3, 4]: 1/3 | Vertebra hyperplasia, granulocytic, marrow [3, 4]: 1/3 | Adrenal lipogenic pigment [3, 5]: 3/4 | Cecum proliferative typhlitis [3, 5]: 1/4 | Duodenum dilatation [3, 5]: 1/4 | Duodenum hyperplasia, crypt [3, 5]: 1/4 | Femur marrow hyperplasia, granulocytic [3, 5]: 4/4 | Gall Bladder hyperplasia, papillary [3, 5]: 4/4 | Heart dilation, atrium [3, 5]: 1/4 | Heart mineralization [3, 5]: 1/4 | Kidney mineralization [3, 5]: 1/4 | Kidney vacuolation. proximal tubule [3, 5]: 1/4 | LN, mandibular hyperplasia, lymphoid [3, 5]: 1/4 | LN, mandibular plasmacytosis [3, 5]: 1/4 | Liver inflammation, subacute [3, 5]: 2/4 | Liver lymphocytic infiltrate [3, 5]: 2/4 | Lung lymphocytic infiltrate [3, 5]: 3/4 | Pancreas duct, dilation [3, 5]: 4/4 | Pancreas neoplasm, graded [3, 5]: 4/4 | Skin/Subcutis inflammation, chronic active [3, 5]: 1/4 | Spleen extramedullary hematopoiesis, erythrocytic, increased erythropoiesis [3, 5]: 1/4 | Spleen fibrosis [3, 5]: 2/4 | Stomach, glandular, hyperplasia, foveolar cells [3, 5]: 2/4 | Stomach, nonglandular, erosion [3, 5]: 1/4 | Thyroid hyperplasia, papillary [3, 5]: 1/4 | Vertebra hyperplasia, granulocytic, marrow [3, 5]: 4/4 | Histopathological or laboratory abnormalities ([3]; mouse, in vivo, 10 mg/kg): failed to discern any histopathological or laboratory abnormalities | Histopathological or laboratory abnormalities ([3]; mouse, in vivo, po, 25 mg/kg): failed to discern any histopathological or laboratory abnormalities
